Assays:
Assay type in all cases: cell-based
[1] = test system: Mycobacterium tuberculosis 1 strain assayed; assay: Method of the proportions, Table 3 entry 10
[2] = test system: Mycobacterium tuberculosis 8 strains assayed; assay: Method of the proportions, Table 3 entry 7
[3] = test system: Mycobacterium avium-intracellulare complex 5 strains assayed; assay: Method of the proportions, Table 3 entry 11; conditions: for MIC: Mycobacterium avium-intracellulare, five strains, all resistant
[4] = test system: Mycobacterium tuberculosis ATCC 35820; assay: Method of the proportions, Table 3 entry 2
[5] = test system: Mycobacterium tuberculosis 2 strains assayed; assay: Method of the proportions, Table 3 entry 8
[6] = test system: Mycobacterium tuberculosis ATCC 35822; assay: Method of the proportions, Table 3 entry 4
[7] = test system: Mycobacterium tuberculosis ATCC 35837; assay: Method of the proportions, Table 3 entry 1
[8] = test system: Mycobacterium tuberculosis 38 strains assayed; assay: Method of the proportions, Table 3 entry 6
[9] = test system: Mycobacterium tuberculosis H37 RV; assay: Method of the proportions, Table 3 entry 5
[10] = test system: Mycobacterium tuberculosis 3 strains assayed; assay: Method of the proportions, Table 3 entry 9
[11] = test system: Mycobacterium tuberculosis ATCC 35838; assay: Method of the proportions, Table 3 entry 3
[12] = test system: Mycobacterium Kansasii 4 strains assayed; assay: Method of the proportions, Table 3 entry 12
[13] = concentration analysed 0.2 μg/ml

Row | Compound | Sensitivity of strain (s/R) ([1]; concentration analysed 1 μg/ml) | Sensitivity of strains (s/R) ([2]; concentration analysed 1 μg/ml) | Sensitivity of strains (s/R) ([3]; concentration analysed 1 μg/ml) | Sensitivity of strain (s/R) ([4]; concentration analysed 1 μg/ml) | Sensitivity of strains (s/R) ([5]; concentration analysed 1 μg/ml) | Sensitivity of strain (s/R) ([6]; concentration analysed 1 μg/ml) | Sensitivity of strain (s/R) ([7]; concentration analysed 1 μg/ml) | Sensitivity of strains (s/R) ([8]; concentration analysed 1 μg/ml) | Sensitivity of strain (s/R) ([9]; concentration analysed 1 μg/ml) | Sensitivity of strains (s/R) ([10]; concentration analysed 1 μg/ml) | Sensitivity of strain (s/R) ([11]; concentration analysed 1 μg/ml) | Sensitivity of strains (s/R) ([12]; concentration analysed 1 μg/ml) | further results
1 | 4-deoxo-3,4-[(2R)-2-spiro(N-buthyl-2,6-diphenyl-4-piperidil)-2,5-dihydro-1H-imidazo]rifamycin S [RFA 16M] | s (s means sensitive) | s (s means sensitive) | s/R | s (s means sensitive) | s (s means sensitive) | s (s means sensitive) | s (s means sensitive) | s (s means sensitive) | s (s means sensitive) | s (s means sensitive) | s (s means sensitive) | s (s means sensitive) | –
2 | 4-deoxo-3,4-[(2R)-2-spiro[2,6-bis(4-fluorophenyl)-4-piperidil]-2,5-dihydro-1H-imidazo]rifamycin S [RFA 5M] | s (s means sensitive) | s (s means sensitive) | s (s means sensitive) | s (s means sensitive) | s (s means sensitive) | s (s means sensitive) | s (s means sensitive) | s (s means sensitive) | s (s means sensitive) | s (s means sensitive) | s (s means sensitive) | s (s means sensitive) | –
3 | 4-deoxo-3,4-[(2R)-2-spiro[2,6-bis(4-methoxiphenyl)-4-piperidyl]-2,5-dihydro-1H-imidazo]rifamycin S [RFA 4M] | s (s means sensitive) | s (s means sensitive) | s/R | s (s means sensitive) | s (s means sensitive) | s (s means sensitive) | s (s means sensitive) | s (s means sensitive) | s (s means sensitive) | s (s means sensitive) | s (s means sensitive) | s (s means sensitive) | –
4 | NNC(=O)c1cccs1 [TCH, 2-tiophene hydrazo carboxilic acid] | R (R means resistent) | R (R means resistent) | R (R means resistent) | R (R means resistent) | R (R means resistent) | R (R means resistent) | R (R means resistent) | R (R means resistent) | R (R means resistent) | R (R means resistent) | R (R means resistent) | R (R means resistent) | –
5 | CC[C@@H](CO)NCCN[C@@H](CC)CO [EB, ethambutol] | – | – | – | – | – | – | – | – | – | – | – | – | Sensitivity of strain (s/R) ([1]; concentration analysed 5 μg/ml): s (s means sensitive); Sensitivity of strains (s/R) ([2]; concentration analysed 5 μg/ml): s (s means sensitive); Sensitivity of strains (s/R) ([3]; concentration analysed 5 μg/ml): R (R means resistent); Sensitivity of strain (s/R) ([4]; concentration analysed 5 μg/ml): s (s means sensitive); Sensitivity of strains (s/R) ([5]; concentration analysed 5 μg/ml): s (s means sensitive); Sensitivity of strain (s/R) ([6]; concentration analysed 5 μg/ml): s (s means sensitive); Sensitivity of strain (s/R) ([7]; concentration analysed 5 μg/ml): s (s means sensitive); Sensitivity of strains (s/R) ([8]; concentration analysed 5 μg/ml): s (s means sensitive); Sensitivity of strain (s/R) ([9]; concentration analysed 5 μg/ml): s (s means sensitive); Sensitivity of strains (s/R) ([10]; concentration analysed 5 μg/ml): s (s means sensitive); Sensitivity of strain (s/R) ([11]; concentration analysed 5 μg/ml): R (R means resistent); Sensitivity of strains (s/R) ([12]; concentration analysed 5 μg/ml): R (R means resistent)
6 | CO[C@H]1/C=C/O[C@@]2(C)Oc3c(C)c(O)c4c(O)c(c(/C=N/N5CCN(C)CC5)c(O)c4c3C2=O)NC(=O)/C(C)=C\C=C\[C@H](C)[C@H](O)[C@@H](C)[C@@H](O)[C@@H](C)[C@H](OC(C)=O)[C@@H]1C [RI, rifampicin] | s (s means sensitive) | s (s means sensitive) | R (R means resistent) | s (s means sensitive) | s (s means sensitive) | s (s means sensitive) | R (R means resistent) | s (s means sensitive) | s (s means sensitive) | s (s means sensitive) | s (s means sensitive) | s (s means sensitive) | MIC [3]: > 1 µg/mL
7 | CO[C@H]1/C=C/O[C@@]2(C)Oc3c(C)c(O)c4c(c3C2=O)C2=NC3(CCN(CC(C)C)CC3)NC2=C(NC(=O)/C(C)=C\C=C\[C@H](C)[C@H](O)[C@@H](C)[C@@H](O)[C@@H](C)[C@H](OC(C)=O)[C@@H]1C)C4=O [RFB, rifabutin] | s (s means sensitive) | s (s means sensitive) | R (R means resistent) | s (s means sensitive) | s (s means sensitive) | s (s means sensitive) | R (R means resistent) | s (s means sensitive) | s (s means sensitive) | s (s means sensitive) | s (s means sensitive) | s (s means sensitive) | MIC [3]: > 1 µg/mL
8 | 4-deoxo-3,4-[(2R)-2-spiro(N-allyl-2,6-diphenyl-4-piperidil)-2,5-dihydro-1H-imidazo]rifamycin S [RFA 7M] | s (s means sensitive) | s (s means sensitive) | R (R means resistent) | s (s means sensitive) | s (s means sensitive) | s (s means sensitive) | R (R means resistent) | s (s means sensitive) | s (s means sensitive) | s (s means sensitive) | s (s means sensitive) | s (s means sensitive) | –
9 | NNC(=O)c1ccncc1 [IZ, isoniazid] | – | – | – | – | – | – | – | – | – | – | – | – | Sensitivity of strain (s/R) [1, 13]: R (R means resistent); Sensitivity of strains (s/R) [2, 13]: s (s means sensitive); Sensitivity of strains (s/R) [3, 13]: R (R means resistent); Sensitivity of strain (s/R) [4, 13]: s (s means sensitive); Sensitivity of strains (s/R) [5, 13]: R (R means resistent); Sensitivity of strain (s/R) [6, 13]: R (R means resistent); Sensitivity of strain (s/R) [7, 13]: s (s means sensitive); Sensitivity of strains (s/R) [8, 13]: s (s means sensitive); Sensitivity of strain (s/R) [9, 13]: s (s means sensitive); Sensitivity of strains (s/R) [10, 13]: s (s means sensitive); Sensitivity of strain (s/R) [11, 13]: s (s means sensitive); Sensitivity of strains (s/R) [12, 13]: R (R means resistent)
10 | CN[C@@H]1[C@H](O[C@H]2[C@H](O[C@H]3[C@H](O)[C@@H](O)[C@H](N=C(N)N)[C@@H](O)[C@@H]3N=C(N)N)O[C@@H](C)[C@]2(O)C=O)O[C@@H](CO)[C@H](O)[C@H]1O [SM] | – | – | – | – | – | – | – | – | – | – | – | – | Sensitivity of strain (s/R) ([1]; concentration analysed 4 μg/ml): R (R means resistent); Sensitivity of strains (s/R) ([2]; concentration analysed 4 μg/ml): s (s means sensitive); Sensitivity of strains (s/R) ([3]; concentration analysed 4 μg/ml): s/R; Sensitivity of strain (s/R) ([4]; concentration analysed 4 μg/ml): R (R means resistent); Sensitivity of strains (s/R) ([5]; concentration analysed 4 μg/ml): s (s means sensitive); Sensitivity of strain (s/R) ([6]; concentration analysed 4 μg/ml): s (s means sensitive); Sensitivity of strain (s/R) ([7]; concentration analysed 4 μg/ml): s (s means sensitive); Sensitivity of strains (s/R) ([8]; concentration analysed 4 μg/ml): s (s means sensitive); Sensitivity of strain (s/R) ([9]; concentration analysed 4 μg/ml): s (s means sensitive); Sensitivity of strains (s/R) ([10]; concentration analysed 4 μg/ml): R (R means resistent); Sensitivity of strain (s/R) ([11]; concentration analysed 4 μg/ml): s (s means sensitive); Sensitivity of strains (s/R) ([12]; concentration analysed 4 μg/ml): R (R means resistent)

From patent publication US7521458B2, “Spiropiperidylrifamycins for the treatment of mycobacterial infections” (priority 2004, dated 2009)
